Experimental data published in PubChem BioAssay AID248 (DTP/NCI, 2004).
Where “and” joins values, the source holds several entries; their conditions need not be identical. Equal entries are not always repeated. Toxic doses and inconclusive results are not listed.

System: L1210 leukemia ip in BDF1 mice, survival T/C
Experiment: NCI In Vivo Anticancer Drug Screen. Data for tumor model L1210 Leukemia (intraperitoneal) in B6D2F1 (BDF1) mice
Details: higher = longer survival
In short: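 Tumor was transplanted into mice, which were then dosed with test compound or vehicle alone. Survival was recorded for each group, and the treated figure was expressed relative to the control figure.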

For `N=c1ccn2c(n1)OC1C(O)C(CO)OC12` (stereo unspecified), the T/C (endpoint: mean survival time, dose: 0.79 mg/kg/injection, schedule: Q03HX024 (ip), vehicle: water) was 110 % of control, the T/C (endpoint: mean survival time, dose: 1.56 mg/kg/injection, schedule: Q01DX009 (ip), vehicle: water) was 103 % of control and the T/C (endpoint: mean survival time, dose: 3.13 mg/kg/injection, schedule: Q01DX009 (ip), vehicle: water) was 110 % of control. The T/C (endpoint: mean survival time, dose: 100.0 mg/kg/injection, schedule: Q04DX003 (ip), vehicle: water) was 169 % of control, the T/C (endpoint: mean survival time, dose: 118.0 mg/kg/injection, schedule: Q01DX009 (ip), vehicle: clinical formulation) was 203 % of control and the T/C (endpoint: mean survival time, dose: 118.0 mg/kg/injection, schedule: Q01DX009 (ip), vehicle: saline) was 195 % of control. For the same compound, the T/C (endpoint: mean survival time, dose: 177.0 mg/kg/injection, schedule: Q01DX009 (ip), vehicle: clinical formulation) was 213 % of control, the T/C (endpoint: mean survival time, dose: 177.0 mg/kg/injection, schedule: Q01DX009 (ip), vehicle: saline) was 230 % of control and the T/C (endpoint: mean survival time, dose: 200.0 mg/kg/injection, schedule: Q04DX003 (ip), vehicle: water) was 180 % of control. The T/C (endpoint: mean survival time, dose: 266.0 mg/kg/injection, schedule: Q01DX009 (ip), vehicle: clinical formulation) was 250 % of control, the T/C (endpoint: mean survival time, dose: 266.0 mg/kg/injection, schedule: Q01DX009 (ip), vehicle: saline) was 258 % of control and the T/C (endpoint: mean survival time, dose: 400.0 mg/kg/injection, schedule: Q01DX009 (ip), vehicle: clinical formulation) was 254 % of control. The T/C (endpoint: mean survival time, dose: 400.0 mg/kg/injection, schedule: Q01DX009 (ip), vehicle: saline) was 246 % of control, the T/C (endpoint: mean survival time, dose: 400.0 mg/kg/injection, schedule: Q04DX003 (ip), vehicle: water) was 215 % of control and the T/C (endpoint: mean survival time, dose: 600.0 mg/kg/injection, schedule: Q01DX009 (ip), vehicle: clinical formulation) was 101 % of control. The T/C (endpoint: mean survival time, dose: 1200.0 mg/kg/injection, schedule: Q01DX001 (ip), vehicle: saline) was 158 % of control, the T/C (endpoint: mean survival time, dose: 1600.0 mg/kg/injection, schedule: Q01DX001 (ip), vehicle: saline) was 154 % of control and 161 % of control and 166 % of control and the T/C (endpoint: mean survival time, dose: 2000.0 mg/kg/injection, schedule: Q01DX001 (ip), vehicle: saline) was 161 % of control and 170 % of control and 172 % of control. For the same compound, the T/C (endpoint: median survival time, dose: 5.0 mg/kg/injection, schedule: Q03HX008 (ip), vehicle: saline) was 161 % of control, the T/C (endpoint: median survival time, dose: 12.5 mg/kg/injection, schedule: Q01DX009 (ip), vehicle: saline) was 157 % of control and the T/C (endpoint: median survival time, dose: 25.0 mg/kg/injection, schedule: Q01DX009 (ip), vehicle: saline) was 178 % of control. For the same compound, the T/C (endpoint: median survival time, dose: 25.0 mg/kg/injection, schedule: Q03HX024 (ip), vehicle: water) was 170 % of control and 250 % of control, the T/C (endpoint: median survival time, dose: 50.0 mg/kg/injection, schedule: Q01DX009 (ip), vehicle: saline) was 184 % of control and the T/C (endpoint: median survival time, dose: 50.0 mg/kg/injection, schedule: Q01DX009 (ip), vehicle: steriod suspending solution) was 170 % of control. The T/C (endpoint: median survival time, dose: 50.0 mg/kg/injection, schedule: Q03HX016 (ip), vehicle: saline) was 211 % of control, the T/C (endpoint: median survival time, dose: 50.0 mg/kg/injection, schedule: Q03HX024 (ip), vehicle: saline) was 255 % of control and the T/C (endpoint: median survival time, dose: 50.0 mg/kg/injection, schedule: Q03HX024 (ip), vehicle: water) was 205 % of control and 230 % of control. The T/C (endpoint: median survival time, dose: 100.0 mg/kg/injection, schedule: Q01DX009 (ip), vehicle: saline) was 190 % of control and 205 % of control, the T/C (endpoint: median survival time, dose: 100.0 mg/kg/injection, schedule: Q01DX009 (ip), vehicle: steriod suspending solution) was 185 % of control and the T/C (endpoint: median survival time, dose: 100.0 mg/kg/injection, schedule: Q01DX009 (oral), vehicle: saline) was 166 % of control. For the same compound, the T/C (endpoint: median survival time, dose: 100.0 mg/kg/injection, schedule: Q03HX008 (ip), vehicle: saline) was 155 % of control, the T/C (endpoint: median survival time, dose: 100.0 mg/kg/injection, schedule: Q03HX016 (ip), vehicle: saline) was 233 % of control and the T/C (endpoint: median survival time, dose: 100.0 mg/kg/injection, schedule: Q03HX024 (ip), vehicle: saline) was 322 % of control. For the same compound, the T/C (endpoint: median survival time, dose: 100.0 mg/kg/injection, schedule: Q03HX024 (ip), vehicle: water) was 250 % of control and 270 % of control, the T/C (endpoint: median survival time, dose: 100.0 mg/kg/injection, schedule: Q04DX003 (oral), vehicle: water) was 111 % of control and the T/C (endpoint: median survival time, dose: 108.0 mg/kg/injection, schedule: Q01DX008 (ip), vehicle: water) was 179 % of control. For the same compound, the T/C (endpoint: median survival time, dose: 120.0 mg/kg/injection, schedule: Q01DX001 (ip), vehicle: water) was 166 % of control, the T/C (endpoint: median survival time, dose: 160.0 mg/kg/injection, schedule: Q01DX001 (ip), vehicle: water) was 166 % of control and the T/C (endpoint: median survival time, dose: 180.0 mg/kg/injection, schedule: Q01DX008 (ip), vehicle: water) was 182 % of control. The T/C (endpoint: median survival time, dose: 200.0 mg/kg/injection, schedule: Q01DX001 (ip), vehicle: saline) was 122 % of control, the T/C (endpoint: median survival time, dose: 200.0 mg/kg/injection, schedule: Q01DX001 (ip), vehicle: water) was 105 % of control and the T/C (endpoint: median survival time, dose: 200.0 mg/kg/injection, schedule: Q01DX009 (ip), vehicle: saline) was 219 % of control and 222 % of control and 234 % of control. The T/C (endpoint: median survival time, dose: 200.0 mg/kg/injection, schedule: Q01DX009 (ip), vehicle: steriod suspending solution) was 235 % of control, the T/C (endpoint: median survival time, dose: 200.0 mg/kg/injection, schedule: Q01DX009 (oral), vehicle: saline) was 188 % of control and the T/C (endpoint: median survival time, dose: 200.0 mg/kg/injection, schedule: Q03HX008 (ip), vehicle: saline) was 177 % of control. For the same compound, the T/C (endpoint: median survival time, dose: 200.0 mg/kg/injection, schedule: Q03HX016 (ip), vehicle: saline) was 255 % of control, the T/C (endpoint: median survival time, dose: 200.0 mg/kg/injection, schedule: Q03HX024 (oral), vehicle: water) was 116 % of control and the T/C (endpoint: median survival time, dose: 200.0 mg/kg/injection, schedule: Q04DX003 (ip), vehicle: saline) was 177 % of control. The T/C (endpoint: median survival time, dose: 200.0 mg/kg/injection, schedule: Q04DX003 (ip), vehicle: water) was 160 % of control, the T/C (endpoint: median survival time, dose: 216.0 mg/kg/injection, schedule: Q01DX009 (ip), vehicle: water) was 100 % of control and 105 % of control and the T/C (endpoint: median survival time, dose: 300.0 mg/kg/injection, schedule: Q01DX008 (ip), vehicle: water) was 202 % of control. For the same compound, the T/C (endpoint: median survival time, dose: 300.0 mg/kg/injection, schedule: Q01DX009 (ip), vehicle: saline) was 221 % of control, the T/C (endpoint: median survival time, dose: 360.0 mg/kg/injection, schedule: Q01DX009 (ip), vehicle: water) was 104 % of control and 111 % of control and the T/C (endpoint: median survival time, dose: 400.0 mg/kg/injection, schedule: Q01DX001 (ip), vehicle: water) was 100 % of control. For the same compound, the T/C (endpoint: median survival time, dose: 400.0 mg/kg/injection, schedule: Q01DX001 (oral), vehicle: water) was 120 % of control, the T/C (endpoint: median survival time, dose: 400.0 mg/kg/injection, schedule: Q01DX009 (ip), vehicle: saline) was 223 % of control and 262 % of control and 311 % of control and the T/C (endpoint: median survival time, dose: 400.0 mg/kg/injection, schedule: Q01DX009 (ip), vehicle: steriod suspending solution) was 315 % of control. For the same compound, the T/C (endpoint: median survival time, dose: 400.0 mg/kg/injection, schedule: Q01DX009 (oral), vehicle: saline) was 205 % of control, the T/C (endpoint: median survival time, dose: 400.0 mg/kg/injection, schedule: Q03HX008 (ip), vehicle: saline) was 188 % of control and the T/C (endpoint: median survival time, dose: 400.0 mg/kg/injection, schedule: Q03HX024 (ip), vehicle: saline) was 88 % of control. For the same compound, the T/C (endpoint: median survival time, dose: 400.0 mg/kg/injection, schedule: Q03HX024 (ip), vehicle: water) was 100 % of control, the T/C (endpoint: median survival time, dose: 400.0 mg/kg/injection, schedule: Q04DX003 (ip), vehicle: saline) was 150 % of control and the T/C (endpoint: median survival time, dose: 400.0 mg/kg/injection, schedule: Q04DX003 (ip), vehicle: water) was 165 % of control. The T/C (endpoint: median survival time, dose: 500.0 mg/kg/injection, schedule: Q01DX008 (ip), vehicle: water) was 164 % of control, the T/C (endpoint: median survival time, dose: 500.0 mg/kg/injection, schedule: Q01DX009 (ip), vehicle: saline) was 211 % of control and the T/C (endpoint: median survival time, dose: 600.0 mg/kg/injection, schedule: Q01DX009 (ip), vehicle: saline) was 232 % of control. For the same compound, the T/C (endpoint: median survival time, dose: 700.0 mg/kg/injection, schedule: Q01DX009 (ip), vehicle: saline) was 156 % of control, the T/C (endpoint: median survival time, dose: 800.0 mg/kg/injection, schedule: Q01DX001 (ip), vehicle: water) was 120 % of control and the T/C (endpoint: median survival time, dose: 800.0 mg/kg/injection, schedule: Q01DX009 (ip), vehicle: saline) was 94 % of control. The T/C (endpoint: median survival time, dose: 800.0 mg/kg/injection, schedule: Q01DX009 (oral), vehicle: saline) was 122 % of control, the T/C (endpoint: median survival time, dose: 800.0 mg/kg/injection, schedule: Q01DX009 (oral), vehicle: water) was 94 % of control and the T/C (endpoint: median survival time, dose: 800.0 mg/kg/injection, schedule: Q04DX003 (ip), vehicle: water) was 200 % of control. The T/C (endpoint: median survival time, dose: 800.0 mg/kg/injection, schedule: Q04DX003 (oral), vehicle: saline) was 166 % of control, the T/C (endpoint: median survival time, dose: 1600.0 mg/kg/injection, schedule: Q01DX001 (ip), vehicle: saline) was 155 % of control and the T/C (endpoint: median survival time, dose: 1600.0 mg/kg/injection, schedule: Q01DX001 (ip), vehicle: water) was 155 % of control. For the same compound, the T/C (endpoint: median survival time, dose: 1600.0 mg/kg/injection, schedule: Q04DX003 (ip), vehicle: water) was 100 % of control, the T/C (endpoint: median survival time, dose: 1600.0 mg/kg/injection, schedule: Q04DX003 (oral), vehicle: saline) was 244 % of control and the T/C (endpoint: median survival time, dose: 2000.0 mg/kg/injection, schedule: Q01DX001 (oral), vehicle: water) was 150 % of control.

`CCc1ccccc1NC(=O)Nc1ccc(S(N)(=O)=O)cc1` was tested, and the T/C (endpoint: mean survival time, dose: 100.0 mg/kg/injection, schedule: Q01DX009 (ip), vehicle: Klucel (hydroxypropylcellulose) (HPC)) was 98 % of control, the T/C (endpoint: mean survival time, dose: 200.0 mg/kg/injection, schedule: Q01DX009 (ip), vehicle: Klucel (hydroxypropylcellulose) (HPC)) was 97 % of control and the T/C (endpoint: mean survival time, dose: 400.0 mg/kg/injection, schedule: Q01DX009 (ip), vehicle: Klucel (hydroxypropylcellulose) (HPC)) was 103 % of control.
